Entries after “also recorded” stand apart in the source; their conditions may differ.
What was measured:
in vitro [1] = format: cell-based; conditions: mouse
Method: Primary cultures of cardiac cells (CC) were obtained as reported in [50]. The cultures were sustained in Dulbecco’s modified Eagle’s medium (DMEM) supplemented with 10% horse serum, 5% fetal bovine serum (FBS), 2.5 mM CaCl2, 1 mM L-glutamine, and 2% chicken embryo extract. Cell cultures were maintained at 37 °C in an atmosphere of 5% CO2, and assays were run at least three times in triplicate.
Cardiac cell cultures were incubated for 24 h at 37 °C with different concentrations of the compounds (up to 200 µM) diluted in DMEM (without phenol red). Their morphology and spontaneous contractibility were evaluated by light microscopy and then the cellular viability was determined by the PrestoBlue® assay. For this colorimetric bioassay, PrestoBlue® (Invitrogen, Waltham, MA, USA) was added to each well (using a 10:1 medium/dye), the plate was further incubated for 24 h followed by optical density (OD) measurement performed at 570 and 600 nm, as recommended by the manufacturer.

[2] = Salmonella/microsome assay, TA100; conditions: Salmonella enterica serovar Typhimurium, S. typhimurium TA100 without S9 mix, pH 7.4
T. cruzi = test: Trypanocidal in vitro phenotypic screening, overall outcome; format: cell-based, Trypanosoma cruzi; conditions: summarized outcome
Method: Bloodstream trypomastigote forms (BT) of the Y strain were obtained from infected albino Swiss mice at the peak of parasitemia, isolated by differential centrifugation and resuspended in DMEM to a parasite concentration of 10^7 cells/mL in the presence of 10% of mouse blood. This suspension (100 µL) was added in the same volume of 13 (a–d) and 14 (a–d) previously prepared at twice the desired final concentrations.
(§1) Tissue culture-derived trypomastigotes (Tulahuen strain expressing the E. coli β-galactosidase gene) were maintained in L929 cell lines and collected from the supernatant after 96 h of parasite infection, following previously established protocols. Briefly, after 24 h of L929 platting (4 × 10^3 cells/well), the cultures were incubated with trypomastigotes (10:1 parasite/host cell ratio) for 2 h at 37 °C. Then, the cell cultures were rinsed to remove non-internalized parasites and then further incubated for 24 h at 37 °C. Then the infected cultures were followed using two sequential protocols. […] After this period, 50 µL chlorophenol red glycoside (500 µM) in 0.5% Nonidet P40 was added to each well and the plate was incubated for more than 18 h at 37 °C, after which the absorbance was measured at 570 nm. Then, the compounds were next evaluated using dose–response assays in which Tulahuen-infected-L929 cells were exposed to different non-toxic concentrations of each compound (0–50 µM) and then after 96 h of incubation the same procedure was conducted as above reported. Controls with untreated and Bz-treated cells are run in parallel. The results were expressed as the percent difference in the reduction between treated and untreated cells.

[3] = tested on: Salmonella enterica serovar Typhimurium TA98; test: Salmonella/microsome assay, TA98
Method: (§2) Salmonella enterica serovar Typhimurium (S. typhimurium) strains TA97, TA98, TA100, TA104 and TA102 from the authors’ stock were used as described in the mutagenicity assay.
(§3) To determine the cytotoxic effects, after 30 min pre-incubation, the assay mixtures were diluted in 0.9% NaCl (w/v) to obtain a suspension containing 2 × 10^2 cells/mL. […] The plates were then incubated at 37 °C for 24 h and the colonies counted. All the experiments were conducted in triplicate and were repeated at least twice. Statistical differences between the groups were analyzed by a two-way ANOVA (p < 0.05) and Tukey’s post hoc test.

[4] = Salmonella/microsome assay, TA98; conditions: Salmonella enterica serovar Typhimurium, S. typhimurium TA98 without S9 mix, pH 7.4
Method: as §2, §3

[5] = tested on: intracellular forms of T. cruzi (Tulahuen strain transfected with β-galactosidase); test: Activity against intracellular T. cruzi in L929 cells; format: cell-based, Trypanosoma cruzi; conditions: for EC50: intracellular forms, Tulahuen strain
Method: as §1, with “Then, the compounds were next evaluated using dose–response assays in which Tulahuen-infected-L929 cells were exposed to different non-toxic concentrations of each compound (0–50 µM) and then after 96 h of incubation the same procedure was conducted as above reported.” left out

in vitro [6] = conditions: Salmonella enterica serovar Typhimurium, pH 7.4
[7] = tested on: Salmonella enterica serovar Typhimurium TA97; test: Salmonella/microsome assay, TA97; conditions: for mutagenicity to TA97: at concentrations above 300 µM
Method: as §2, §3

[8] = Salmonella/microsome assay, TA97; conditions: Salmonella enterica serovar Typhimurium, S. typhimurium TA97 without S9 mix, pH 7.4
Method: as §2, §3

in vitro [9] = format: cell-based; conditions: human
Method: Human hepatocellular carcinoma (HepG2) and Chinese Hamster Ovary (CHO-K1) cells obtained from the American Type Culture Collection (Manassas, VA, USA) were cultured in Eagle’s medium (MEM, Gibco®, Waltham, MA, USA) containing 10% fetal bovine serum (FBS) plus 100 µg/mL streptomycin and 100 µg/mL penicillin at 37 °C in a 5% CO2 atmosphere. Logarithmic-phase cells were used in all the experiments.
Fresh HepG2 and CHO-K1 cells were seeded at a density of 1 × 10^4/well. […] Briefly, after treatment, the culture medium was replaced by 90 μL fresh culture medium and 10 μL WST-1 reagent and incubated at 37 °C and 5% CO2 for 3 h. The absorbance was then measured at 440 nm according to the kit protocol.

[10] = Trypanosoma cruzi, TULAHUEN, L929, 96 h, 96 h

Row | SMILES | CC50 at 24 h (in vitro [1]) [µM] | Trypanocidal Activity (T. cruzi) | revertant His+ colonies TA98 ([3]; +S9, 3 µM) | revertant His+ colonies TA98 ([3]; +S9, 15 µM) | revertant His+ colonies TA98 ([3]; +S9, 30 µM) | revertant His+ colonies TA98 ([3]; +S9, 150 µM) | revertant His+ colonies TA98 ([3]; +S9, 300 µM) | revertant His+ colonies TA98 ([3]; +S9, 1500 µM) | revertant His+ colonies TA98 ([3]; −S9, 3 µM) | revertant His+ colonies TA98 ([3]; −S9, 15 µM) | revertant His+ colonies TA98 ([3]; −S9, 30 µM) | revertant His+ colonies TA98 ([3]; −S9, 150 µM) | revertant His+ colonies TA98 ([3]; −S9, 300 µM) | revertant His+ colonies TA98 ([3]; −S9, 1500 µM) | EC50 [5, 10] [µM] | CC50 (in vitro [6]) [µM] | revertant His+ colonies TA97 ([7]; +S9, 3 µM) | revertant His+ colonies TA97 ([7]; +S9, 15 µM) | revertant His+ colonies TA97 ([7]; +S9, 30 µM) | revertant His+ colonies TA97 ([7]; +S9, 150 µM) | other results
1 | CC(=O)Nc1ccc(Br)cc1C(F)(F)C(=O)NCC[C@@H]1C[C@H](CC(=O)OC(C)(C)C)OC(C)(C)O1 [Compound 13d, tert-Butyl 2-((4R,6R)-6-(2-(2-(2-acetamido-5-bromophenyl)-2,2-difluoroacetamido)ethyl)-2,2-dimethyl-1,3-dioxan-4-yl)acetate] | > 500 | Yes | 28 ± 1 | 28 ± 5 | 31 ± 7 | 34 ± 2 | 34 ± 4 | 35 ± 3 | 22 ± 7 | 23 ± 5 | 25 ± 1 | 25 ± 1 | 27 ± 5 | Cytotoxic | 11.4 ± 3.29 | 14.7 ± 1.8 | 134 ± 3 | 135 ± 1 | 201 ± 4 | 203 ± 1 | CC50 at 30 min [2]: 120 ± 14.1 µM; CC50 at 30 min [4]: 1260 ± 46.8 µM; SI ([5]; LC50 (L929)/EC50 (intracellular forms)): 10; revertant His+ colonies TA97 ([7]; +S9, 300 µM): 288 ± 6; revertant His+ colonies TA97 ([7]; +S9, 1500 µM): 410 ± 10; mutagenicity to TA97 ([7]; +S9): significant mutagenicity; also recorded: mutagenic; revertant His+ colonies TA97 ([7]; −S9, 3 µM): 119 ± 8; revertant His+ colonies TA97 ([7]; −S9, 15 µM): 137 ± 1; revertant His+ colonies TA97 ([7]; −S9, 30 µM): 135 ± 4; revertant His+ colonies TA97 ([7]; −S9, 150 µM): 134 ± 4; revertant His+ colonies TA97 ([7]; −S9, 300 µM): 146 ± 6; revertant His+ colonies TA97 ([7]; −S9, 1500 µM): Cytotoxic; mutagenicity to TA97 ([7]; −S9): significant mutagenicity; also recorded: mutagenic; CC50 at 30 min [8]: 1490 ± 36.5 µM; CC50 at 24 h (in vitro [9]): > 1000 µM
2 | CC(=O)Nc1ccccc1C(F)(F)C(=O)NCC[C@@H]1C[C@H](CC(=O)OC(C)(C)C)OC(C)(C)O1 [Compound 13a, tert-Butyl 2-((4R,6R)-6-(2-(2-(2-acetamidophenyl)-2,2-difluoroacetamido)ethyl)-2,2-dimethyl-1,3-dioxan-4-yl)acetate] | > 500 | No | 25 ± 8 | 25 ± 4 | 26 ± 5 | 27 ± 1 | 33 ± 1 | 36 ± 3 | 24 ± 3 | 29 ± 6 | 31 ± 8 | 32 ± 3 | 52 ± 4 | 61 ± 5 | ≥ 50 | 1480 ± 56.1 | 214 ± 21 | 217 ± 9 | 235 ± 23 | 237 ± 26 | mutagenicity to TA98 ([3]; −S9, at concentrations above 300 µM): significant mutagenicity; also recorded: enhanced the number of revertants; 10µM (% of Parasite Lysis) ([5]; fixed concentration 10 µM, 96 h): 17.92 ± 11.02%; EC50 ([5]; 96 h): > 50 µM; revertant His+ colonies TA97 ([7]; +S9, 300 µM): 237 ± 4; revertant His+ colonies TA97 ([7]; +S9, 1500 µM): 290 ± 28; revertant His+ colonies TA97 ([7]; −S9, 3 µM): 78 ± 6; revertant His+ colonies TA97 ([7]; −S9, 15 µM): 82 ± 8; revertant His+ colonies TA97 ([7]; −S9, 30 µM): 79 ± 8; revertant His+ colonies TA97 ([7]; −S9, 150 µM): 69 ± 10; revertant His+ colonies TA97 ([7]; −S9, 300 µM): 80 ± 11; revertant His+ colonies TA97 ([7]; −S9, 1500 µM): 90 ± 9; CC50 at 24 h (in vitro [9]): > 1000 µM
